Key:
[1] = target: T1, E6B08_RS28125 (solute binding protein); test: isothermal titration calorimetry (and DSF); design: species or system Pseudomonas putida
T1 construct: recombinant from pET28b(+), without the predicted signal peptide

PcpI [2] = target: T2, PcpI (Pseudomonas putida, UniProt A0A4D6XHR0); test: isothermal titration calorimetry; DSF Tm shift […]°C; format: binding
T2 construct: gene E6B08_28110; LBD (amino acids 38–174)
T2 sequence (A0A4D6XHR0 38-174): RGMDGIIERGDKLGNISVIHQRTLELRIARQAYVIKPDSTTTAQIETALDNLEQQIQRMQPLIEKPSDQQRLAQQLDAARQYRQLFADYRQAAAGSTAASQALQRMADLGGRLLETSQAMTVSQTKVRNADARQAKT
From the text: Exothermic heats were observed that decreased as protein saturation progressed

PcpI [3] = target: T2, PcpI; test: isothermal titration calorimetry; format: binding

Structure (SMILES)	Kd [1]	further results
NCCC[C@H](N)C(=O)O [L-ornithine]	0.9 ± 0.1 µM	
N[C@@H](Cc1c[nH]cn1)C(=O)O [L-His]	3.3 ± 0.3 µM	
O=C(O)c1ccccc1O [salicylate]		Kd (PcpI [2]): 826 ± 34 µM
Cc1cccc(C(=O)O)c1 [3-methylbenzoate]		Kd (PcpI [3]; read-out: Kd): 91 ± 8 µM
O=C(O)c1ccccc1 [benzoate]		Kd (PcpI [3]): 171 ± 14 µM
N=C(N)NCCC[C@H](N)C(=O)O [L-Arg]	29.5 ± 3 µM	
